Results on 29 compounds are retold here after patent publication US10844064B2, “sGC stimulators” (Cyclerion Therapeutics, Inc., priority 2014, dated 2020).

Molecules are shown by their SMILES.

For this assay, the target named is T1, sGC enzyme (Homo sapiens, UniProt Q02108+Q02153).
T1 construct: host or cells: HEK293 expressing GloSensor 40F cGMP
T1 sequence (Q02108 1-690): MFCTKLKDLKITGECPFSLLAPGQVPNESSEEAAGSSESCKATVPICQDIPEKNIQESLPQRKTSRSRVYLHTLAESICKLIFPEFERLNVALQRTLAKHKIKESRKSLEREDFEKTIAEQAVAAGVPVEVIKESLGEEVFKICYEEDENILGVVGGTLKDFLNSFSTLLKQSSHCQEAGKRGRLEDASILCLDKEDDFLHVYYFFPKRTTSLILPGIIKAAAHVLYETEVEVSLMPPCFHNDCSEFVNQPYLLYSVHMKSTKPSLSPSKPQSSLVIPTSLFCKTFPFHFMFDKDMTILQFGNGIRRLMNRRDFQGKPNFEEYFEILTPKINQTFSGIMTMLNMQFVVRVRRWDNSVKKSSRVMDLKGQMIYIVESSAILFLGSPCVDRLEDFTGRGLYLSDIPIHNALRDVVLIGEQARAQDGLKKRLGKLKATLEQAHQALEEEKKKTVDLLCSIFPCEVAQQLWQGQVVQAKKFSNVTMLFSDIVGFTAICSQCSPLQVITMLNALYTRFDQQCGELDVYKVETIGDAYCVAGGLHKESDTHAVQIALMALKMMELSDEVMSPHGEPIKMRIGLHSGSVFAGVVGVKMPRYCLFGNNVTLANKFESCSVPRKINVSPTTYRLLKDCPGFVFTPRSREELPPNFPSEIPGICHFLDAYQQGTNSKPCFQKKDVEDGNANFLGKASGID
T1 sequence (Q02153 1-619): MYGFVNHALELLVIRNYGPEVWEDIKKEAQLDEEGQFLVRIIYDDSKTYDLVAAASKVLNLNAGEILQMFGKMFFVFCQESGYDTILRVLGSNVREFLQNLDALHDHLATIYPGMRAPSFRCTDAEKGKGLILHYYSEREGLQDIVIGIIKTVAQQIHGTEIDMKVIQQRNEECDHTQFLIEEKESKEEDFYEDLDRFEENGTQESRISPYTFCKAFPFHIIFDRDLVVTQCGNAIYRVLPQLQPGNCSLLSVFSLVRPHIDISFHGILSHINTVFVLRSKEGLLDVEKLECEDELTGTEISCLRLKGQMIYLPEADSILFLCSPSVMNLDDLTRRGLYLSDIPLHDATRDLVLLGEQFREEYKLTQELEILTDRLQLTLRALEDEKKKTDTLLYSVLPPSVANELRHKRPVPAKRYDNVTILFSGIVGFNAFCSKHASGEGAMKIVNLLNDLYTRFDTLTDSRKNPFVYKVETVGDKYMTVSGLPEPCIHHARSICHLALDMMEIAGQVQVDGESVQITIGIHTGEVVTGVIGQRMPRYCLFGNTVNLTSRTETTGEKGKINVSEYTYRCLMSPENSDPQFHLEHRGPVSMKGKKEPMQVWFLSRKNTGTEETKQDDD
The experiment in a line: cGMP GloSensor cell-based assay, 384-well format (Example 2B). Particulars: HEK293 GloSensor 40F cGMP cells, 10 μM DETA-NONOate; 50% of high control response (Compound Y); read-out: sGC_HEK_GloSensor EC50/IC50 Abs (Norm) (nM) Binned. Here is the method: Data were normalized to a high control using the following equation: 100*(Sample—Low Control)/(High Control—Low Control), where the low control is the average of 16 samples treated with 1% DMSO, and the high control is the average of 16 samples treated with 30 μM of Compound Y depicted below. Data were fit using a 4-parameter fit (log(agonist) vs. response variable slope) using GraphPad Prism Software v.5. n=2 for all compounds. […] Compounds failing to elicit a minimum response of 50% are reported as >30 μM. For compounds run in duplicate or n higher than 2, the result herein given is the geometric mean of the several results obtained.
Human embryonic kidney cells (HEK293) cells expressing GloSensor™ 40F cGMP (Part No: CS182801, Promega) were used to evaluate the activity of test compounds. The luminescent biosensors (engineered luciferase) that were incorporated into these cells detect cGMP formed by the compounds stimulating the sGC enzyme and emit luminescence.
cGMP GloSensor cells were maintained in Dulbecco's Modification of Eagle's Medium (DMEM) supplemented with fetal bovine serum (FBS) (10% final) and hygromycine (200 μg/ml). The day before assay, cells were plated in DMEM with 10% FBS in a 50 μL volume at a density of 1.5×10^4 cells/well in a poly-D-lysine coated 384-well flat white-bottom plate (Corning Cat No 35661). Cells were incubated overnight at 37° C. in a humidified chamber with 5% CO2. The next day, medium was removed and cells were replaced with 40 μl/well of GloSensor™, […] (Promega Cat No E1291). Cells were treated for 90 minutes at 25° C. to allow the substrate to equilibrate in the cells. Test compounds and Diethylenetriamine NONOate (DETA-NONOate) was diluted to […] in serum-free CO2 independent medium and serally diluted at 4× dilutions to create 5× dose curve from which 10 ul was added to the wells (x uM concentration for test compound solution and 10 μM concentration for DETA-NONOate solution; wherein x is one of the following final concentrations).
For the kinetics studies, luminescense was measured right away for 0.2 sec per well with Envision (Perkin Elmer model No). For endpoint SAR screening, data were collected after 55 min incubation at room temperature.
Data analysis was carried out as indicated above in Example 2A.
For `COc1cc(-c2ncc3c(n2)NC(=O)C3(C)C)nn1Cc1cccc(Cl)c1` [Compound I-59], the EC50 fell in the range of 100 to 1000 nM.
The result for `COc1cc(-c2ncc3c(n2)NC(=O)C3(C)C)nn1Cc1cccc(C#N)c1` [Compound I-60] reads 100 to 1000 nM; that for `COc1cc(-c2ncc3c(n2)NC(=O)C3(C)C)nn1Cc1ccc(C(F)(F)F)cc1` [Compound I-62], more than 1000 nM; that for `COc1cc(-c2ncc3c(n2)NC(=O)C3(C)C)nn1Cc1ccc(C)cc1F` [Compound I-63], less than 100 nM.
Take `COc1cc(-c2ncc3c(n2)NC(=O)C3(C)C)nn1Cc1ccc(C(F)(F)F)c(F)c1` [Compound I-64]: the EC50 is more than 1000 nM.
As for `Cn1c(=O)[nH]c2nc(-c3cc(-c4ccon4)n(Cc4ccccc4F)n3)ncc21` [Compound I-65], the EC50 is more than 30000 nM.
Turning to `Cn1cc(-c2ncc3c(n2)NC(=O)C3(C)C)nc1Cc1ccccc1F` [Compound I-66], the EC50 is more than 1000 nM.
In the case of `COc1cn(-c2nnc3c(n2)NC(=O)C3(C)C)nc1Cc1ccccc1F` [Compound I-67], the EC50 lay within 100 to 1000 nM.
With `CC1(C)C(=O)Nc2nnc(-c3cc(-c4ccon4)n(Cc4ccccc4F)n3)nc21` [Compound I-68] the figure was more than 1000 nM; with `CC1(C)C(=O)Nc2nc(-c3cc(C#N)n(Cc4ccccc4F)n3)nnc21` [Compound I-69], 100 to 1000 nM.
The result for `CC(=O)c1cc(-c2nnc3c(n2)NC(=O)C3(C)C)nn1Cc1ccccc1F` [Compound I-70] reads 100 to 1000 nM; that for `CC1(C)C(=O)Nc2nc(-c3ccn(Cc4ccccc4F)n3)nc(N)c21` [Compound I-73, 4-amino-2-(1-(2-fluorobenzyl)-1H-pyrazol-3-yl)-5,5-dimethyl-5H-pyrrolo[2,3-d]pyrimidin-6(7H)-one], 100 to 1000 nM; that for `CC1(C)C(=O)Nc2nc(-c3ccn(Cc4ccccc4F)n3)ncc21` [Compound I-74], 100 to 1000 nM.
The result for `CC1(C)C(=O)Nc2nc(-c3ccn(Cc4ccccc4F)n3)nc(NCC3CC3)c21` [Compound I-75] reads 100 to 1000 nM; that for `CC1(C)C(=O)Nc2nc(-c3ccn(Cc4ccccc4F)n3)nc(N3CCOCC3)c21` [Compound I-76], 100 to 1000 nM; that for `Cc1nc(-c2ccn(Cc3ccccc3F)n2)nc2c1C(C)(C)C(=O)N2` [Compound I-77], more than 1000 nM.
`COc1nc(-c2ccn(Cc3ccccc3F)n2)nc2c1C(C)(C)C(=O)N2` [Compound I-78]: the EC50 is more than 1000 nM.
As to `CC1(C)C(=O)Nc2nc(-c3ccn(Cc4ccccc4F)n3)nc(O)c21` [Compound I-79], the EC50 was more than 1000 nM.
With `CC1(C)C(=O)Nc2nc(-n3cc(-c4ccon4)c(Cc4ccccc4F)n3)nc(N)c21` [Compound I-80, 4-amino-2-(3-(2-fluorobenzyl)-4-(isoxazol-3-yl)-1H-pyrazol-1-yl)-5,5-dimethyl-5H-pyrrolo[2,3-d]pyrimidin-6(7H)-one] the figure was less than 100 nM; with `CC1(C)C(=O)Nc2nc(-n3cc(-c4ccon4)c(Cc4ccccc4F)n3)ncc21` [Compound I-81, 2-(3-(2-fluorobenzyl)-4-(isoxazol-3-yl)-1H-pyrazol-1-yl)-5,5-dimethyl-5H-pyrrolo[2,3-d]pyrimidin-6(7H)-one], 100 to 1000 nM; with `COc1cn(-c2nc(N)c3c(n2)NC(=O)C3(C)C)nc1Cc1ccccc1F` [Compound I-82, 4-amino-2-(3-(2-fluorobenzyl)-4-methoxy-1H-pyrazol-1-yl)-5,5-dimethyl-5H-pyrrolo[2,3-d]pyrimidin-6(7H)-one], less than 100 nM.
With `COc1cn(-c2nc(O)c3c(n2)NC(=O)C3(C)C)nc1Cc1ccccc1F` [Compound I-83] the figure was less than 100 nM; with `Cc1cn(-c2nc(N)c3c(n2)NC(=O)C3(C)C)nc1Cc1ccccc1F` [Compound I-84, 4-amino-2-(3-(2-fluorobenzyl)-4-methyl-1H-pyrazol-1-yl)-5,5-dimethyl-5H-pyrrolo[2,3-d]pyrimidin-6(7H)-one], less than 100 nM; with `Cc1cn(-c2ncc3c(n2)NC(=O)C3(C)C)nc1Cc1ccccc1F` [Compound I-85], 100 to 1000 nM.
With `Cc1cn(-c2nc(O)c3c(n2)NC(=O)C3(C)C)nc1Cc1ccccc1F` [Compound I-86] the figure was 100 to 1000 nM; with `Cc1nc(-c2nc(O)c3c(n2)NC(=O)C3(C)C)nn1Cc1ccccc1F` [Compound I-88], more than 1000 nM; with `Cc1nc(-c2ncc3c(n2)NC(=O)C3(C)C)nn1Cc1ccccc1F` [Compound I-89], more than 1000 nM.
In the case of `COc1ccc(CN2C(=O)C(C)(C)c3nnc(-n4cc(OC)c(Cc5ccccc5F)n4)nc32)cc1` [Compound I-91, 3-(3-(2-fluorobenzyl)-4-methoxy-1H-pyrazol-1-yl)-5-(4-methoxybenzyl)-7,7-dimethyl-5H-pyrrolo[2,3-e][1,2,4]triazin-6(7H)-one], the EC50 is more than 30000 nM.
`COc1cc(-c2nc(N)c3c(n2)NC(=O)C3(C)C)nn1Cc1cncnc1` [Compound I-92, 4-amino-2-(5-methoxy-1-(pyrimidin-5-ylmethyl)-1H-pyrazol-3-yl)-5,5-dimethyl-5H-pyrrolo[2,3-d]pyrimidin-6(7H)-one]: the EC50 was more than 1000 nM.
